Experimental data as given in patent publication US20040072990A1, “Antimicrobial peptides with reduced hemolysis and methods of their use” (priority 2002, published 2004).
Values after ≈ are worked out from the molar mass of the structure shown. Residues, ends and D or L forms follow the SMILES beside them.

Legend:
human red blood cells = assay: Erythrocyte lysis (hemolysis); assay type: cell-based
Protocol: Pac 521-530 were tested for hemolysis against human red blood cells (RBC). The RBCs with EDTA were rinsed 3 times with PBS (800 g, 10 min) and resuspended in PBS. The RBCs were diluted into 10% with phosphate-buffered saline and placed 50 μl into each eppendorf. The peptides that dissolved in PBS were then added to 50 μl of 10% solution of RBCs and incubated for an hour at 37° C. (final RBC concentration, 5% v/v). The samples were centrifuged at 800 g for 10 min […]. Various concentrations of peptides were incubated with pretreated RBC and the percentage of hemolysis determined. […]

P. aeruginosa = assay: MIC test (NCCLS broth microdilution); assay type: cell-based, Pseudomonas aeruginosa
Protocol: (§1) Generally, the in vitro antimicrobial activities of antimicrobial agents were tested using standard NCCLS bacterial inhibition assays, or minimum inhibition concentration (MIC) tests. The MIC value is the lowest concentration of peptide at which the visible growth of test organisms is inhibited and reduced.
(§2) Briefly, overnight cultures of the test organisms were diluted to produce an inoculum containing approximately 10^5 colonies in Meuller-Hinton broth (MHB). From the peptide stock solution, serial two-dilutions of the peptides in 50 μl volume was prepared in a 96-well microtiter plate, and all wells were subsequently inoculated with the diluted culture of the test organisms. After 18 hours of incubation at 37° C., the results were assayed for turbidity (cell growth). MIC values were performed three times on different occasions (FIG. 2), and the median values are shown.

S. epidermidis = assay: MIC test (NCCLS broth microdilution); assay type: cell-based, Staphylococcus epidermidis
Protocol: as §1, §2

B. cereus = assay: MIC test (NCCLS broth microdilution); assay type: cell-based, Bacillus cereus
Protocol: as §1, §2

S. aureus = assay: MIC test (NCCLS broth microdilution); assay type: cell-based, Staphylococcus aureus
Protocol: (§3) The MIC value is the lowest concentration of peptide at which the visible growth of test organisms is inhibited and reduced.
as §2

E. coli = assay: MIC test (NCCLS broth microdilution); assay type: cell-based
Protocol: as §3, §2

B. substiis = assay: MIC test (NCCLS broth microdilution); assay type: cell-based, Bacillus. substilis
Protocol: as §1, §2

B. pumilus = assay: MIC test (NCCLS broth microdilution); assay type: cell-based, Bacillus pumilus
Protocol: as §1, §2

With `CC[C@H](C)[C@H](NC(=O)[C@H](Cc1c[nH]c2ccccc12)NC(=O)[C@H](CCCNC(=N)N)NC(=O)[C@H](CCCNC(=N)N)NC(=O)[C@H](Cc1c[nH]c2ccccc12)NC(=O)[C@@H](N)CCCCN)C(N)=O` [Pac 301 L, K W R R W I] (H-KWRRWI-NH2; N-terminus and C-terminus assumed) the “% lysis at 5 μg/ml” value (human red blood cells) was 0.85%, the “% lysis at 50 μg/ml” value (human red blood cells) was 6.8% and the “% lysis at 500 μg/ml” value (human red blood cells) was 14%.

For `CC[C@H](C)[C@H](NC(=O)[C@H](Cc1c[nH]c2ccccc12)NC(=O)[C@H](CCCCN)NC(=O)[C@@H](NC(=O)[C@H](Cc1c[nH]c2ccccc12)NC(=O)[C@@H](N)CCCCN)[C@@H](C)CC)C(N)=O` [Pac-305 L, K W I K W I] (H-KWIKWI-NH2; N-terminus and C-terminus assumed), the “% lysis at 5 μg/ml” value (human red blood cells) was 0.74%, the “% lysis at 50 μg/ml” value (human red blood cells) was 7.2% and the “% lysis at 500 μg/ml” value (human red blood cells) was 15%.

With `CC[C@H](C)[C@H](NC(=O)[C@H](Cc1c[nH]c2ccccc12)NC(=O)[C@H](CCCNC(=N)N)NC(=O)[C@@H](NC(=O)[C@H](Cc1c[nH]c2ccccc12)NC(=O)[C@H](CCCNC(=N)N)NC(=O)[C@H](CCCNC(=N)N)NC(=O)[C@H](Cc1c[nH]c2ccccc12)NC(=O)[C@@H](N)CCCCN)C(C)C)C(N)=O` [Pac-525 L, K W R R W V R W I] (H-KWRRWVRWI-NH2; N-terminus and C-terminus assumed) the “% lysis at 5 μg/ml” value (human red blood cells) was 0.81%, the “% lysis at 50 μg/ml” value (human red blood cells) was 7.2% and the “% lysis at 500 μg/ml” value (human red blood cells) was 14%. The “hemolysis against RBC compared with other antimicrobial peptides” value (human red blood cells; human RBC, in words) was “substantially less hemolytic”.

In the case of `CC[C@H](C)[C@H](NC(=O)[C@H](Cc1ccccc1)NC(=O)[C@H](CCCNC(=N)N)NC(=O)[C@@H](NC(=O)[C@H](Cc1ccccc1)NC(=O)[C@H](CCCNC(=N)N)NC(=O)[C@H](CCCNC(=N)N)NC(=O)[C@H](Cc1ccccc1)NC(=O)[C@@H](N)CCCCN)C(C)C)C(N)=O` [Pac-527 L, K F R R F V R F I] (H-KFRRFVRFI-NH2; N-terminus assumed), the MIC (P. aeruginosa; 1X Phosphate Buffer) is reported as 8 µg/mL (≈ 6.31 µM), the MIC (P. aeruginosa; Non Phosphate Buffer) is reported as 4 µg/mL (≈ 3.16 µM) and the MIC (S. epidermidis; 1X Phosphate Buffer) is reported as 4 µg/mL (≈ 3.16 µM). It also gave an MIC (S. epidermidis; Non Phosphate Buffer) of 2 µg/mL (≈ 1.58 µM), an MIC (B. cereus; 1X Phosphate Buffer) of 4 µg/mL (≈ 3.16 µM) and an MIC (B. cereus; Non Phosphate Buffer) of 4 µg/mL (≈ 3.16 µM). For the same compound, the MIC (S. aureus; 1X Phosphate Buffer) was 4 µg/mL (≈ 3.16 µM), the MIC (S. aureus; Non Phosphate Buffer) was 4 µg/mL (≈ 3.16 µM) and the MIC (E. coli; 1X Phosphate Buffer) was 8 µg/mL (≈ 6.31 µM). The MIC (E. coli; Non Phosphate Buffer) was 4 µg/mL (≈ 3.16 µM), the MIC (B. substiis; 1X Phosphate Buffer) was 2 µg/mL (≈ 1.58 µM) and the MIC (B. substiis; Non Phosphate Buffer) was 4 µg/mL (≈ 3.16 µM). It also gave an MIC (B. pumilus; 1X Phosphate Buffer) of 4 µg/mL (≈ 3.16 µM) and an MIC (B. pumilus; Non Phosphate Buffer) of 2 µg/mL (≈ 1.58 µM).
